# Experimental data taken from patent US10961234B2, “Oxazole derivatives for use in the treatment of cancer” (LIFEARC, priority 2016, dated 2021).
# Key:
# [1] = target: T1, WT full length PAICS (Homo sapiens, UniProt P22234); assay: Biochemical assay to measure PAICS activity (Transcreener ADP2 FI, SAICAR synthetase reaction); details: PAICS 2.5 nM, 30 mins pre-incubation, ADP detection by fluorescence intensity
# T1 construct: 5 μl WT full length PAICS (final assay concentration, fac, 2.5 nM) in basic buffer
# T1 sequence (P22234 1-425): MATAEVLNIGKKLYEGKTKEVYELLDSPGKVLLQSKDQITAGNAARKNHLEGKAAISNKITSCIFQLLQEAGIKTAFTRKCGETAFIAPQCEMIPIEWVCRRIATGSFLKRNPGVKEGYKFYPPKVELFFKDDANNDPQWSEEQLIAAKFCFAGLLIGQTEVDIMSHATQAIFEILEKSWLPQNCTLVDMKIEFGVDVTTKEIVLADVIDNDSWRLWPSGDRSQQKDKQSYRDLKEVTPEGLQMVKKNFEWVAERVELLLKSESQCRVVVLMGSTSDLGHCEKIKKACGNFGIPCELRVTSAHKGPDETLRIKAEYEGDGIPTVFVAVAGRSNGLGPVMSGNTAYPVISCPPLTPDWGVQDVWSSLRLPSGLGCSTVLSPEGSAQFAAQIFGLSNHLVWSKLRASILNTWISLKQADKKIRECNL
# Text: The biochemical assay was used to measure PAICS SAICAR synthetase-mediated conversion of CAIR, aspartic acid and ATP to SAICAR, ADP and inorganic phosphate (PI), post-AIR/CAIR equilibration (see FIG. 3). This was achieved by detecting the ADP generated during the reaction, using Bellbrook Lab's Transcreener ADP^2 FI assay. An increase in the fluorescence intensity is directly proportional to the amount of PAICS activity.
# The Transcreener ADP^2 FI assay is a homogeneous competitive displacement fluorescence intensity assay which uses direct immunodetection of ADP. Displacement of the tracer by ADP causes an increase in the fluorescence at excitation 590 nm and emission 617 nm (FIG. 3).
# 5 μl WT full length PAICS (final assay concentration, fac, 2.5 nM) in basic buffer, added to black, non-binding, 384-well plates (Corning #3575), columns 1 to 22.5 μl basic buffer was added to columns 23+24 (negative control). PAICS stock at 31.9 μM from the PI's lab (Steve Firestine). Basic buffer contained 50 mM Tris-HCl pH8 and 0.5 mM EDTA, fac.
# 1 μl compound in 100% DMSO added per well, or 1 μl 100% DMSO to positive controls (columns 1+2) and negative controls (columns 23+24). Final assay top concentration of compound either 1 mM or 30 μM, serially diluted with half-log dilutions across the plate in duplicate (one 10-point concentration response curve across wells 3 to 12, another across 13 to 22). Compounds pre-incubated with PAICS enzyme for 30 mins at RT.
# 2 μl CAIR added (fac 10 μM) in basic buffer plus 25 mM MgCl2 and 50 mM KHCO3 fac to all wells. CAIR stock 50 mM from Steve Firestine's lab. 1 hr RT incubation for AIR-CAIR equilibration. NB: ˜50% CAIR is decarboxylated during equilibration therefore 5 μM remains for the synthetase reaction.
# 2 μl ATP/aspartic acid added (fac 30 μM/180 μM) in reaction buffer to all wells. 30 mins RT incubation for appropriate level of ATP turnover. Reaction buffer contained basic buffer plus 10 mM DTT, 0.01% BSA and 0.01% Brij 35, fac.
# 10 μl ADP detection reagent added to all wells (as per instructions, Transcreener ADP^2 FI kit, BellBrook Labs #3013-10K). Incubation for 1 h at RT to allow antibody equilibration. Fluorescence intensity determined using a Tecan Safire2 (excitation at 590 nm, emission at 617 nm).
# [2] = test system: LM2 and MDA-MB-231 breast cancer cell lines; assay: PAICS 2D cell proliferation assay; format: cell-based; details: Homo sapiens; 72 hours incubation; cell line (LM2 or MDA-MB-231) not given
# Method: Frozen cryovial stocks of LM2 and MDA-MB-231 breast cancer cell lines were thawed and cultured in 4.5 g/L glucose DMEM (31966-047, Invitrogen) supplemented with 10% Fetal Bovine Serum (10500-064, Invitrogen) until confluent in a T175 flask. Cells were incubated at 37° C. with 5% CO2 in a humidified incubator.
# Cells were collected from T175 flasks by washing with PBS (10010-056, Invitrogen) and dissociated using Accutase (A6964, Sigma Aldrich). This was followed by centrifuging (1200 rpm, 5 min) and resuspending the cells in 10 ml of media containing 1% penicillin/streptomycin (15140-122, Invitrogen). Cells were counted by trypan blue exclusion method using an automated cell counter (Cellometer) and diluted to a concentration of 40,000/ml. 1000 cells were then seeded into 384-well white-walled plates (Corning, 3707) in a volume of 25 μl. Plates were incubated overnight at 37° C. with 5% CO2.
# After 24 hours, PAICS compounds were added onto the assay plates using an HP D300 Digital Dispenser (Hewlett Packard). 10 mM stocks were used and dispensed as a 10 point concentration response curve (CRC) ½ log dilution series with a final top concentration of 100 μM. Controls were added onto each plate: positive controls included Staurosporine CRC (100 μM stock dispensed as a 10 point CRC ½ log dilution series with a final top concentration of 1 μM) and PAICS compound MRT00211919 (10 mM stock dispensed as a 10 point CRC ½ log dilution series with a final top concentration of 100 μM); a high control of Staurosporine (0.1 μM (LM2), 0.316 μM (MDA-MB-231) FAC) and a low control of media containing 1% DMSO. A final concentration of 1% DMSO was then added across the plates for normalisation. Following compound addition, assay plates were incubated for 72 hours at 37° C. with 5% CO2.
# After 72 h incubation, dead and viable cells were measured in each assay plate. Cytotoxicity was assessed through fluorescent DNA staining using the CellTox™ Green Cytotoxicity Assay kit (G8743, Promega) following the manufacturer's multiplexing protocol. Impaired cell membrane integrity results in the access of dye to stain DNA allowing quantification of dead cells. Cell viability was determined following ATP quantification using the CellTiter-Glo® Luminescent Cell Viability Assay kit (G7572, Promega) following the manufacturer's protocol. ATP released from lysed cells allowed for the generation of a signal proportional to the number of cells present in the well. All endpoint reads were performed using the PheraSTAR Plus (BMG Labtech). Data is expressed as % viable cells and % dead cells against controls (mean±SEM of duplicate curves).
SMILES,IC50 [1] [nM],EC50 [2] [nM]
"CNC1CCC(n2cc(-c3ccc(Cl)c(NC(=O)c4coc(N)n4)c3)cn2)CC1 (mixture of isomers) [Example 80, 2-Amino-N-(2-chloro-5-{1-[4-(methylamino)cyclohexyl]-1H-pyrazol-4-yl}phenyl)-1,3-oxazole-4-carboxamide]",< 10,< 100
"Nc1nc(C(=O)Nc2cc(-c3ccc(CN4CCNCC4)cc3)ccc2Cl)co1 [Example 38, 2-Amino-N-[4-chloro-4′-(piperazin-1-ylmethyl)biphenyl-3-yl]-1,3-oxazole-4-carboxamide]",10 to 25,250 to 500
"Nc1nc(C(=O)Nc2cc(-c3ccc(N4CCNCC4)cc3)ccc2Cl)co1 [Example 39, 2-Amino-N-[4-chloro-4′-(piperazin-1-yl)biphenyl-3-yl]-1,3-oxazole-4-carboxamide]",> 100,250 to 500
Nc1nc(C(=O)Nc2cc(-c3cnn(C4CCNCC4)c3)ccc2Cl)co1 [Example 40],25 to 100,250 to 500
"Nc1nc(C(=O)Nc2cc(-c3cnn(C4CCNC4)c3)ccc2Cl)co1 (centres unmarked) [Example 41, 2-Amino-N-{2-chloro-5-[1-(pyrrolidin-3-yl)-1H-pyrazol-4-yl]phenyl}-1,3-oxazole-4-carboxamide]",25 to 100,100 to 250
"Nc1nc(C(=O)Nc2cc(-c3cnn(C4CCCNC4)c3)ccc2Cl)co1 (centres unmarked) [Example 42, 2-Amino-N-{2-chloro-5-[1-(piperidin-3-yl)-1H-pyrazol-4-yl]phenyl}-1,3-oxazole-4-carboxamide]",> 100,100 to 250
"CN(C)CCCn1cc(-c2ccc(Cl)c(NC(=O)c3coc(N)n3)c2)cn1 [Example 43, 2-Amino-N-(2-chloro-5-{1-[3-(dimethylamino)propyl]-1H-pyrazol-4-yl}phenyl)-1,3-oxazole-4-carboxamide]",25 to 100,100 to 250
"CN1CCC(n2cc(-c3ccc(Cl)c(NC(=O)c4coc(N)n4)c3)cn2)CC1 [Example 44, 2-Amino-N-{2-chloro-5-[1-(1-methylpiperidin-4-yl)-1H-pyrazol-4-yl]phenyl}-1,3-oxazole-4-carboxamide]",> 100,100 to 250
"CN1CC(n2cc(-c3ccc(Cl)c(NC(=O)c4coc(N)n4)c3)cn2)C1 [Example 45, 2-Amino-N-{2-chloro-5-[1-(1-methylazetidin-3-yl)-1H-pyrazol-4-yl]phenyl}-1,3-oxazole-4-carboxamide]",> 100,100 to 250
"Nc1nc(C(=O)Nc2cc(-c3cnn(CCCNC4CC4)c3)ccc2Cl)co1 [Example 48, 2-Amino-N-(2-chloro-5-(1-(3-(cyclopropylamino)propyl)-1H-pyrazol-4-yl)phenyl)oxazole-4-carboxamide]",10 to 25,100 to 250
"CNCCCn1cc(-c2ccc(Cl)c(NC(=O)c3coc(N)n3)c2)cn1 [Example 49, 2-Amino-N-(2-chloro-5-(1-(3-(methylamino)propyl)-1H-pyrazol-4-yl)phenyl)oxazole-4-carboxamide]",< 10,< 100
"CNCCn1cc(-c2ccc(Cl)c(NC(=O)c3coc(N)n3)c2)cn1 [Example 50, 2-Amino-N-(2-chloro-5-(1-(2-(methylamino)ethyl)-1H-pyrazol-4-yl)phenyl)oxazole-4-carboxamide]",10 to 25,100 to 250
"Nc1nc(C(=O)Nc2cc(-c3cnn(CCCN4CCNCC4)c3)ccc2Cl)co1 [Example 51, 2-Amino-N-(2-chloro-5-(1-(3-(piperazin-1-yl)propyl)-1H-pyrazol-4-yl)phenyl)oxazole-4-carboxamide]",< 10,100 to 250
"CN1CCN(CCCn2cc(-c3ccc(Cl)c(NC(=O)c4coc(N)n4)c3)cn2)CC1 [Example 52, 2-Amino-N-(2-chloro-5-(1-(3-(4-methylpiperazin-1-yl)propyl)-1H-pyrazol-4-yl)phenyl)oxazole-4-carboxamide]",10 to 25,100 to 250
"CN(C)CCCc1ncc(-c2ccc(Cl)c(NC(=O)c3coc(N)n3)c2)s1 [Example 85, 2-Amino-N-(2-chloro-5-{2-[3-(dimethylamino)propyl]-1,3-thiazol-5-yl}phenyl)-1,3-oxazole-4-carboxamide]",–,< 100
"CNC1CCCN(Cc2csc(-c3ccc(Cl)c(NC(=O)c4coc(N)n4)c3)n2)C1 (centres unmarked) [Example 96, 2-Amino-N-[2-chloro-5-(4-{[3-(methylamino)piperidin-1-yl]methyl}-1,3-thiazol-2-yl)phenyl]-1,3-oxazole-4-carboxamide]",–,< 100
"CN(C)C1CCN(Cc2csc(-c3ccc(Cl)c(NC(=O)c4coc(N)n4)c3)n2)CC1 [Example 97, 2-Amino-N-[2-chloro-5-(4-{[4-(dimethylamino)piperidin-1-yl]methyl}-1,3-thiazol-2-yl)phenyl]-1,3-oxazole-4-carboxamide]",–,100 to 250
"CCN(CC)CCCOc1ncc(-c2ccc(Cl)c(NC(=O)c3coc(N)n3)c2)s1 [Example 98, 2-Amino-N-(2-chloro-5-{2-[3-(diethylamino)propoxy]-1,3-thiazol-5-yl}phenyl)-1,3-oxazole-4-carboxamide]",–,< 100
"CSc1ccc(-c2cnc(OCCCN(C)C)s2)cc1NC(=O)c1coc(N)n1 [Example 99, 2-Amino-N-[5-{2-[3-(dimethylamino)propoxy]-1,3-thiazol-5-yl}-2-(methylsulfanyl)phenyl]-1,3-oxazole-4-carboxamide]",–,100 to 250
"CSc1ccc(-c2nc(CN3CCNCC3)cs2)cc1NC(=O)c1coc(N)n1 [Example 100, 2-Amino-N-{2-(methylsulfanyl)-5-[4-(piperazin-1-ylmethyl)-1,3-thiazol-2-yl]phenyl}-1,3-oxazole-4-carboxamide]",–,< 100
"CN1CCN(c2ncc(-c3ccc(Cl)c(NC(=O)c4coc(N)n4)c3)s2)CC1 [Example 101, 2-Amino-N-{2-chloro-5-[2-(4-methylpiperazin-1-yl)-1,3-thiazol-5-yl]phenyl}-1,3-oxazole-4-carboxamide]",–,100 to 250
